Experimental data from the supplement of paper PMC11451515.

Tested on: P12-Ichikawa
Test: cell viability relative to DMSO control; higher = less cytotoxic
Conditions: 48 h
In short: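 Library compounds in DMSO were pin-dosed in an 11-point threefold series (47 μM to 0.79 nM) onto leukemia cells in 1536-well plates (5 μl). Plates held 500 cells/well of NOMO1 or SEM or 1000 cells/well of P12-Ichikawa, each adapted for at least four passages in each medium. Luminescence was read with CellTiter-Glo One after 48 h at 37°C. Viability means the per-plate percentage relative to DMSO wells, using cell-free wells as background.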

[1] = HPLM + 10% dialyzed FBS, 0.000781 µM
[2] = HPLM + 10% dialyzed FBS, 0.00234 µM
[3] = HPLM + 10% dialyzed FBS, 0.00702 µM
[4] = HPLM + 10% dialyzed FBS, 0.0211 µM
[5] = HPLM + 10% dialyzed FBS, 0.0632 µM
[6] = HPLM + 10% dialyzed FBS, 0.19 µM
[7] = HPLM + 10% dialyzed FBS, 0.569 µM
[8] = HPLM + 10% dialyzed FBS, 1.71 µM
[9] = HPLM + 10% dialyzed FBS, 5.12 µM
[10] = HPLM + 10% dialyzed FBS, 15.4 µM
[11] = HPLM + 10% dialyzed FBS, 46.1 µM
[12] = RPMI 5 mM glucose + 10% FBS, 0.000781 µM
[13] = RPMI 5 mM glucose + 10% FBS, 0.00234 µM
[14] = RPMI 5 mM glucose + 10% FBS, 0.00702 µM
[15] = RPMI 5 mM glucose + 10% FBS, 0.0211 µM
[16] = RPMI 5 mM glucose + 10% FBS, 0.0632 µM
[17] = RPMI 5 mM glucose + 10% FBS, 0.19 µM
[18] = RPMI 5 mM glucose + 10% FBS, 0.569 µM
[19] = RPMI 5 mM glucose + 10% FBS, 1.71 µM
[20] = RPMI 5 mM glucose + 10% FBS, 5.12 µM
[21] = RPMI 5 mM glucose + 10% FBS, 15.4 µM
[22] = RPMI 5 mM glucose + 10% FBS, 46.1 µM
[23] = RPMI 5 mM glucose + 10% dialyzed FBS, 0.000781 µM
[24] = RPMI 5 mM glucose + 10% dialyzed FBS, 0.00234 µM
[25] = RPMI 5 mM glucose + 10% dialyzed FBS, 0.00702 µM
[26] = RPMI 5 mM glucose + 10% dialyzed FBS, 0.0211 µM
[27] = RPMI 5 mM glucose + 10% dialyzed FBS, 0.0632 µM
[28] = RPMI 5 mM glucose + 10% dialyzed FBS, 0.19 µM
[29] = RPMI 5 mM glucose + 10% dialyzed FBS, 0.569 µM
[30] = RPMI 5 mM glucose + 10% dialyzed FBS, 1.71 µM
[31] = RPMI 5 mM glucose + 10% dialyzed FBS, 5.12 µM
[32] = RPMI 5 mM glucose + 10% dialyzed FBS, 15.4 µM
[33] = RPMI 5 mM glucose + 10% dialyzed FBS, 46.1 µM

SMILES | cell viability [1] [%] | cell viability [2] [%] | cell viability [3] [%] | cell viability [4] [%] | cell viability [5] [%] | cell viability [6] [%] | cell viability [7] [%] | cell viability [8] [%] | cell viability [9] [%] | cell viability [10] [%] | cell viability [11] [%] | cell viability [12] [%] | cell viability [13] [%] | cell viability [14] [%] | cell viability [15] [%] | cell viability [16] [%] | cell viability [17] [%] | cell viability [18] [%] | cell viability [19] [%] | cell viability [20] [%] | cell viability [21] [%] | cell viability [22] [%] | cell viability [23] [%] | cell viability [24] [%] | cell viability [25] [%] | cell viability [26] [%] | cell viability [27] [%] | cell viability [28] [%] | cell viability [29] [%] | cell viability [30] [%] | cell viability [31] [%] | cell viability [32] [%] | cell viability [33] [%]
Cc1nnc(C(=O)NC(C)(C)c2nc(C(=O)NCc3ccc(F)cc3)c(O)c(=O)n2C)o1 | 114 | 110 | 104 | 108 | 109 | 103 | 109 | 90.9 | 102 | 102 | 107 | 107 | 110 | 99.3 | 106 | 102 | 104 | 107 | 95.1 | 103 | 103 | 90.7 | 97.8 | 100 | 104 | 103 | 98.7 | 95.5 | 107 | 94.4 | 95.2 | 91.5 | 92.9
CCN1\C=C(C(O)=O)/C(=O)C2=C1C(=C(N3CCNC(C)C3)C(=C2)F)F (stereo unspecified) | 96.7 | 107 | 111 | 125 | 101 | 109 | 119 | 115 | 124 | 118 | 110 | 87 | 94 | 110 | 110 | 109 | 110 | 114 | 113 | 107 | 124 | 116 | 104 | 112 | 110 | 113 | 107 | 116 | 117 | 113 | 124 | 120 | 112
